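Values below derive from 48-hour exposures of cells grown in 96-well plates, with endpoints linearly interpolated between the two concentrations bracketing the appropriate inhibition level. TGI denotes the concentration required for complete inhibition of growth.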
Key:
Test in all cases: growth of human tumour cells (NCI), 48 h
[1] = test system: BT-549 breast
[2] = test system: MDA-MB-435
[3] = test system: DU-145 prostate
[4] = test system: UACC-62 melanoma
[5] = test system: LOX IMVI melanoma
[6] = test system: SR leukemia
[7] = test system: IGROV1 ovarian
[8] = test system: M14 melanoma
[9] = test system: UACC-257 melanoma
[10] = test system: CAKI-1 renal
[11] = test system: SNB-19 CNS
[12] = test system: CCRF-CEM leukemia
[13] = test system: HL-60(TB) leukemia
[14] = test system: NCI-H460 lung
[15] = test system: TK-10 renal
[16] = test system: HCC-2998 colon
[17] = test system: EKVX NSCLC
[18] = test system: SK-MEL-2 melanoma
[19] = test system: T-47D breast
[20] = test system: RXF 393 renal

Structure (SMILES)	TGI [1]	TGI [2]	TGI [3]	TGI [4]	TGI [5]	TGI [6]	TGI [7]	TGI [8]	TGI [9]	TGI [10]	TGI [11]	TGI [12]	TGI [13]	TGI [14]	TGI [15]	TGI [16]	TGI [17]	TGI [18]	TGI [19]	TGI [20]
CSC1=C(SC)SC(=C2SC3=C(SC(=C4SCCS4)S3)S2)S1	> 100 µM	> 100 µM	> 100 µM	> 100 µM	> 100 µM	> 100 µM	> 100 µM	> 100 µM	> 100 µM	> 100 µM	> 100 µM	> 100 µM	> 100 µM	> 100 µM	> 100 µM	> 100 µM	> 100 µM	> 100 µM	> 100 µM	–
O=C(NCCCNC(=O)c1ccc2c(O)c(O)ccc2c1)c1ccc2c(O)c(O)ccc2c1	35.2 µM	36.1 µM	> 100 µM	> 90 µM	> 100 µM	> 90.7 µM	40.8 µM	78.8 µM	53 µM	> 100 µM	> 70.9 µM	> 100 µM	> 100 µM	–	> 85.6 µM	> 100 µM	> 79.9 µM	> 81.6 µM	> 100 µM	> 70 µM
CCN(CC)CCn1nc(N)c2nc3cc(Cl)ccc3nc21	> 100 µM	> 100 µM	> 100 µM	> 100 µM	> 100 µM	> 100 µM	52.8 µM	> 100 µM	> 100 µM	> 100 µM	> 100 µM	–	> 100 µM	> 100 µM	> 100 µM	> 100 µM	> 100 µM	> 100 µM	> 100 µM	> 100 µM
Cc1cccc2c1[C@]13OC(C)[C@]4(C)CC5OC(=O)[C@@]1(C)[C@@H]5[C@]34C(=O)O2 (some centres undefined)	> 100 µM	> 100 µM	> 100 µM	> 100 µM	> 100 µM	> 100 µM	> 100 µM	> 100 µM	> 100 µM	> 100 µM	> 100 µM	> 100 µM	> 100 µM	> 100 µM	> 100 µM	> 100 µM	> 100 µM	> 100 µM	> 100 µM	–
O=C1/C(=C\c2ccc([N+](=O)[O-])o2)SC2N=C(COc3ccc(Cl)cc3)NN12 (centres undefined)	21.8 µM	16.3 µM	27.3 µM	–	10.5 µM	> 100 µM	9.82 µM	13.2 µM	16.9 µM	32.9 µM	31.1 µM	5.97 µM	6.03 µM	39.5 µM	31.4 µM	–	22.3 µM	37.2 µM	7.54 µM	31.6 µM
COc1cccc(CCn2c(N)c(-c3ccccc3)c3ccc([N+](=O)[O-])cc3c2=O)c1	4.3 µM	> 67.1 µM	31.6 µM	30.7 µM	6.53 µM	31.6 µM	23.4 µM	24.3 µM	40.8 µM	16.7 µM	41 µM	43 µM	27.3 µM	30 µM	5.31 µM	24.8 µM	24.8 µM	48.4 µM	5.6 µM	–
C/C(=N\Nc1cc(CN2CCCC2)c(-c2ccc(Cl)cc2)nn1)C(=O)O	> 100 µM	> 100 µM	> 100 µM	> 100 µM	> 100 µM	> 100 µM	> 100 µM	> 100 µM	> 100 µM	> 100 µM	> 100 µM	> 100 µM	> 100 µM	> 100 µM	> 100 µM	–	> 100 µM	> 100 µM	> 100 µM	> 100 µM
COc1ccc2c(c1C)C(=O)C(O)(CC=C(C)C)O2 (centres undefined)	> 100 µM	> 100 µM	> 100 µM	> 100 µM	> 100 µM	> 100 µM	> 100 µM	> 100 µM	> 100 µM	> 100 µM	> 100 µM	> 100 µM	> 100 µM	> 100 µM	> 100 µM	> 100 µM	> 100 µM	> 100 µM	> 100 µM	–
CC(=O)N(C(=O)CC(=O)N/N=C\c1ccc(Br)c(N(CCC#N)CCC#N)c1)c1ccc(Cl)cc1	> 100 µM	> 100 µM	> 100 µM	> 100 µM	> 100 µM	> 100 µM	> 100 µM	> 100 µM	–	> 100 µM	> 100 µM	> 100 µM	> 100 µM	> 100 µM	> 100 µM	> 100 µM	> 100 µM	–	> 100 µM	> 100 µM
CCC1OC2C(CC=C(C)C)=C3OC(C)(O)C(C)(CC)C(OC(=O)c4ccccc4)C3=C3OC(=O)C=C1C32 (centres undefined)	47.7 µM	> 100 µM	> 100 µM	> 100 µM	46.2 µM	> 100 µM	> 100 µM	> 100 µM	> 100 µM	> 100 µM	94.6 µM	> 100 µM	> 100 µM	> 100 µM	> 100 µM	48.4 µM	> 100 µM	55.2 µM	> 100 µM	–
CC1=C(C(N)=O)C(c2ccncc2)C(C#N)=C2SCC(=O)N12 (centres undefined)	> 100 µM	> 100 µM	> 100 µM	> 100 µM	–	> 100 µM	> 100 µM	> 100 µM	> 100 µM	> 100 µM	> 100 µM	> 100 µM	> 100 µM	> 100 µM	–	–	> 100 µM	> 100 µM	> 100 µM	> 100 µM
C#CCn1ncc2c(SCc3ccccc3)ncnc21	> 100 µM	> 100 µM	> 100 µM	> 100 µM	> 100 µM	> 100 µM	> 100 µM	> 100 µM	> 100 µM	> 100 µM	> 100 µM	> 100 µM	–	> 100 µM	> 100 µM	> 100 µM	> 100 µM	> 100 µM	27.1 µM	> 100 µM
